Test results as given in ChEMBL document CHEMBL1150616, “Schizopeptin 791, a new anabeanopeptin-like cyclic peptide from the cyanobacterium Schizothrix sp” (J Nat Prod, 2002).
In brackets after ≈: the same amount, converted by molar mass. Activity calls are given as the source filed them. The rule behind the calls is not given here.

Tests used:
[1] = Inhibition of trypsin
[2] = Inhibition of chymotrypsin at 45 ug/mL

CC[C@H](C)[C@H](NC(=O)N[C@@H]1CCCCNC(=O)[C@H](Cc2ccccc2)NC(=O)[C@H](C)N(C)C(=O)[C@H](CCc2ccccc2)NC(=O)[C@H]([C@@H](C)CC)NC1=O)C(=O)O [Schizopeptin 791]
IC50 [1]: 45 µg/mL (≈ 56.8 µM)
Activity [2]: inactive
